From PubChem BioAssay (NCI)
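Each compound was tested at five concentrations against cells in 96-well plates for 48 hours. The concentration for 50% growth inhibition is given as GI50. The concentration for full growth arrest is given as TGI.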

What was measured:
Test in all cases: NCI-60 cell line screen, 48 h
CCRF-CEM leukemia = test system: CCRF-CEM leukemia
HCT-116 colon = test system: HCT-116 colon
HS 578T breast = test system: HS 578T breast
K-562 leukemia = test system: K-562 leukemia
NCI-H522 lung = test system: NCI-H522 lung
PC-3 prostate = test system: PC-3 prostate
SK-OV-3 ovarian = test system: SK-OV-3 ovarian
T-47D breast = test system: T-47D breast
TK-10 renal = test system: TK-10 renal
UO-31 renal = test system: UO-31 renal

SMILES	TGI (CCRF-CEM leukemia)	TGI (HCT-116 colon)	TGI (HS 578T breast)	TGI (K-562 leukemia)	TGI (NCI-H522 lung)	TGI (PC-3 prostate)	TGI (SK-OV-3 ovarian)	TGI (T-47D breast)	TGI (TK-10 renal)	TGI (UO-31 renal)	GI50 (CCRF-CEM leukemia)
N#Cc1nc(NC(=O)c2ccccc2C(=O)O)c(C#N)[nH]1	> 100 µM	> 100 µM	> 100 µM	> 100 µM	> 100 µM	> 100 µM	> 100 µM	> 100 µM	> 100 µM	> 100 µM	–
NC(=O)N/N=C1\CC2C3CC4C2C4C13 (stereo unspecified)	> 100 µM	> 100 µM	> 100 µM	> 100 µM	> 100 µM	> 100 µM	> 100 µM	> 100 µM	> 100 µM	> 100 µM	–
O=C(C(Cl)=C(N1CCOCC1)N1CCOCC1)C(Cl)Cl	> 100 µM	> 100 µM	> 100 µM	> 100 µM	> 100 µM	> 100 µM	> 100 µM	> 100 µM	> 100 µM	> 100 µM	–
CC(C)(C)c1cc(C(=O)/C=C/c2ccc3c(c2)OCO3)cc(C(C)(C)C)c1O	16.3 µM	24.5 µM	> 27.1 µM	> 39.1 µM	66 µM	21.8 µM	> 100 µM	23.8 µM	58.1 µM	> 81 µM	–
CCOC(=O)c1cn2c(n1)sc1cc(Cl)cc(Cl)c12	> 100 µM	> 100 µM	> 100 µM	> 100 µM	> 100 µM	> 100 µM	> 100 µM	> 100 µM	> 100 µM	> 100 µM	–
CC(=O)O[C@H]1CCc2c(cc(N)c3c2C(=O)C[C@]2(C)C([C@H](C)CCCC(C)C)CCC32C)C1(C)C (stereo partly specified)	> 100 µM	> 100 µM	> 100 µM	> 100 µM	> 100 µM	> 100 µM	> 100 µM	> 100 µM	> 100 µM	> 100 µM	–
Cn1c2ccccc2c(=O)c2c(O)cc3c(c21)C=CC1(CCCCC1)O3	> 10 µM	> 10 µM	> 10 µM	> 10 µM	> 10 µM	> 10 µM	> 10 µM	> 10 µM	> 10 µM	> 10 µM	–
Cc1ccc(C2=CC(=O)/C(=C\C(=O)c3ccc(Cl)cc3)O2)cc1	> 100 µM	27.8 µM	55.1 µM	41.7 µM	4.99 µM	12.2 µM	56.7 µM	24.3 µM	9.67 µM	21.4 µM	–
CN(C)CC1CCC(CN(C)C)C1=O (stereo unspecified)	> 100 µM	5.23 µM	10.2 µM	> 20.3 µM	0.359 µM	4.58 µM	30.6 µM	3.48 µM	28.2 µM	14 µM	0.319 µM
Oc1[nH]c2ccccc2c1N=NC(=S)Nc1ccc(Cl)cc1	> 100 µM	> 100 µM	> 100 µM	> 100 µM	> 100 µM	> 100 µM	> 100 µM	> 100 µM	94.1 µM	> 100 µM	–
S=c1cc(-c2ccc3c(c2)OCO3)s[nH]1	> 100 µM	> 100 µM	> 100 µM	> 100 µM	54.6 µM	> 100 µM	> 100 µM	> 100 µM	> 100 µM	> 100 µM	–
CNC(=O)CCCNC(=O)CCCC(=O)N(C)C	> 100 µM	> 100 µM	> 100 µM	> 100 µM	> 100 µM	> 100 µM	> 100 µM	> 100 µM	> 100 µM	> 100 µM	–
COc1cc2c(c(O)c1OC)C(=O)C(Cc1ccc(O)cc1)CO2 (stereo unspecified)	> 100 µM	> 100 µM	36.5 µM	> 100 µM	15.3 µM	> 100 µM	61.3 µM	69.6 µM	> 100 µM	> 100 µM	–
N#Cc1c(-c2ccccc2)cc(-c2ccc(Cl)cc2)[nH]c1=S	86 µM	> 100 µM	> 100 µM	> 100 µM	70.5 µM	> 100 µM	77.6 µM	> 100 µM	> 100 µM	> 100 µM	–
COc1cc2c(cc1OC)-c1cc3ccccc3c(=O)n1CC2	> 100 µM	33.9 µM	50.2 µM	> 100 µM	40 µM	40.6 µM	74.5 µM	81.5 µM	50.7 µM	> 100 µM	–
N#Cc1nc(C2CCC2)oc1N	54.7 µM	> 100 µM	> 100 µM	> 100 µM	> 100 µM	> 100 µM	> 100 µM	> 100 µM	> 100 µM	> 100 µM	–
CC12CCCC3(CC(=O)C(C)(C)C3C(=O)C1)C2 (stereo unspecified)	> 100 µM	> 100 µM	> 100 µM	> 100 µM	> 100 µM	> 100 µM	> 100 µM	> 100 µM	> 100 µM	> 100 µM	–
C\C(=N/N=C1/C(=C\N(C)C)C(=O)NC(=O)N1C)c1ccc(Cl)cc1	> 100 µM	> 100 µM	> 100 µM	> 100 µM	> 100 µM	> 100 µM	> 100 µM	> 100 µM	> 100 µM	> 100 µM	–
O=c1[nH]c(Nc2cccc(CO)c2)nc2nc[nH]c12	> 100 µM	> 100 µM	> 100 µM	> 100 µM	> 100 µM	> 100 µM	> 100 µM	> 100 µM	> 100 µM	> 100 µM	–
O=C1CSC2=NC3=C(COC/C3=C\c3ccc(Br)cc3)C(c3ccc(Br)cc3)N12 (stereo unspecified)	61.9 µM	> 100 µM	> 100 µM	> 100 µM	> 100 µM	> 100 µM	> 100 µM	> 100 µM	> 100 µM	> 100 µM	–
COc1cc2ccc1OCc1cccc(n1)COc1ccc(cc1OC)C=Nc1ccc(cc1)N=C2	> 100 µM	> 100 µM	> 100 µM	> 100 µM	> 100 µM	> 100 µM	> 100 µM	> 100 µM	> 100 µM	> 100 µM	–
CO[C@@H]1O[C@H](C(=O)c2ccccc2)[C@H]2OC(C)(C)O[C@@H]12	> 100 µM	> 100 µM	> 100 µM	> 100 µM	> 100 µM	> 100 µM	> 100 µM	> 100 µM	> 100 µM	> 100 µM	–
COC1CC(OC2CCC3(C)C(=CCC4C3C(OC(C)=O)C(OC(=O)CC(C)C)C3(C)C(C(C)=O)CCC43O)C2)OC(C)C1OC1CC(OC)C(OC2CC(OC)C(OC3OC(C)C(OC4OC(CO)C(O)C(O)C4O)C(OC)C3O)C(C)O2)C(C)O1 (stereo unspecified)	> 7.5 µM	> 75 µM	> 75 µM	> 75 µM	> 75 µM	> 75 µM	> 75 µM	> 75 µM	> 75 µM	> 75 µM	–
